target: T1, DPP-IV from porcine kidneys (Sus scrofa, UniProt P22411); assay: Measurement of the DPP-IV activity (fluorimetric, H-Ala-Pro-AFC substrate); assay type: biochemical; conditions: DPP-IV 1 mU/ml, substrate H-Ala-Pro-AFC 15 μM, Tris/HCl pH 7.4, room temperature
T1 construct: DPP-IV from porcine kidneys (Sigma, Munich); purchased Sigma, Munich; host or cells: porcine kidney tissue
Description: Measurement of the DPP-IV activity:
DPP-IV from porcine kidneys (Sigma, Munich)
H-Ala-Pro-AFC (Bachem, Weil am Rhein)
DPP-IV (1 mU/ml, end concentration)
H-Ala-Pro-AFC (15 μm end concentration)
in Tris/HCl (40 mM, pH 7.4), total volume 0.2 ml
The reaction was performed at room temperature for different periods (typically 10 minutes) and stopped at the end of the reaction by adding 20 μl of ZnCl2 (1 M). The conversion of H-AIa-Pro-AFC was determined fluorimetrically by measuring the emission at 535 nm on excitation at 405 nm. In the case of addition of inhibitors, the buffer volume added was adjusted such that a total volume of the test mixture of 200 μl was maintained.
IC50 values for inhibitors were determined by varying the inhibitor concentrations at the given substrate concentration of 15 μM. Ki and Km values were determined by corresponding variation of substrate and inhibitor concentration as described (Dixon, M. and Webb, E. C. (1979) Enzymes, third edition, pp. 47-206, Academic Press). The values for Km, IC50 and Ki were calculated using a commercially available software package (Leatherbarrow, R. J. (1992) GraFit Version 3.0, Erithacus Software Ltd. Staines, U.K.).

T1 sequence (P22411 whole entry): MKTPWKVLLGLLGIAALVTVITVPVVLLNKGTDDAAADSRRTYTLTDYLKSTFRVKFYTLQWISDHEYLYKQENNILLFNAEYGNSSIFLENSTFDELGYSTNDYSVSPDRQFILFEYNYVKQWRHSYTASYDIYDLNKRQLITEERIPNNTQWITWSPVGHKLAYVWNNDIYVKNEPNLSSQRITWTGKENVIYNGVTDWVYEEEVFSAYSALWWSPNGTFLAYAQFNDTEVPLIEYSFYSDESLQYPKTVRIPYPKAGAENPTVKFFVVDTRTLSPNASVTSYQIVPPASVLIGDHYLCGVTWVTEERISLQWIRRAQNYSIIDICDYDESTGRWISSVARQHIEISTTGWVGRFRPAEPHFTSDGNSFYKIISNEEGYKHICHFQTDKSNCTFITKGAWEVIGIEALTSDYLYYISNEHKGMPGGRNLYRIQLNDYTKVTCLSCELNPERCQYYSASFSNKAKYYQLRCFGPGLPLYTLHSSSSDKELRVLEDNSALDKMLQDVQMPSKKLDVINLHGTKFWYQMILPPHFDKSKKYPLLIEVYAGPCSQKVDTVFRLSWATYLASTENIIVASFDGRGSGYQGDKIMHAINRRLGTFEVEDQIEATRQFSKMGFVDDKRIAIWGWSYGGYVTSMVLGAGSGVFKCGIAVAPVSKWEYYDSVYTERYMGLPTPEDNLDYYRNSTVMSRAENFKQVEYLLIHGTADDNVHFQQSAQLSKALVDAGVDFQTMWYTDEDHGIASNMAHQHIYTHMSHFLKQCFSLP

IC50 [nM] | Compound
1000 | N[C@@H]1CCCN(c2nc3ccc(C(=O)NCc4cccc(C(F)(F)F)c4)cc3n2Cc2ccc(F)cc2)C1 [Example 2]
2500 | N[C@@H]1CCCN(c2nc3ccc(C(=O)NCc4cccnc4)cc3n2Cc2ccc(F)cc2)C1 [Example 5]
4300 | N[C@@H]1CCCN(c2nc3cc(C(=O)NCc4ccc(Cl)cc4)ccc3n2Cc2ccc(F)cc2)C1 [Example 6]
1800 | CC(C)=CCn1c(N2CCC[C@@H](N)C2)nc2ccc(C(=O)Nc3ccc(F)cc3)cc21 [Example 11]
